Test in all cases: SelectScreen kinase specificity survey
Holding throughout (format): biochemical
Holding throughout (details): estimated, abridged dose response curve, read-out: Kinase inhibitory activity EC50

The target in assay [1] is T1, MERTK (cMER) (Homo sapiens, UniProt Q12866).
T1 construct: purchased Invitrogen (SelectScreen service)
The protocol: (§1) Testing of the compounds described in this invention was carried out using the SelectScreen™ platform from Invitrogen, Inc. (Carlsbad. Calif., USA) and the details of its performance are readily viewed via the web by linking to: http://www.invitrogen.com/downloads/SelectScrn_Brochure.pdf.
(§2) Briefly, the approach is based on treating each specific kinase with a unique substrate and optical reporter system in the presence of ATP at 100 micromolar. In controls, the substrate is phosphorylated and a baseline optimal response is recorded.
(§3) The compounds were then re-tested by adding graded amounts of putative inhibitor which were added in 5 separate increments to generate a dose response curve. The latter is obtained by fitting to a 4 parameter Hill equation, a sigmoid saturation equation.
(§4) The same assay system described in Example 2 can be applied in the determination of kinase specificity. It is well understood by medicinal chemists in the development of kinase inhibitors that the resulting molecules often lack specificity. Not only are homologous kinases inhibited by the same class of compounds, but also non-homologous kinases can be affected by allosteric, induced, activated vs inactivated conformation, and protein folding interactions with the putative inhibitor, which otherwise had been designed to be specific. These off target effects are difficult to predict and can only be ruled in or out by empirically surveying a large set of kinases. It is also understood that changes to scaffolds and variation in their chemical decorations may influence the extent of promiscuity in the patterns of kinase inhibition across kinase classes.
(§5) The following experiment was conducted to address this issue. The indazole compound (IV), described in Example 2 and representative of the new genus was tested along with Symadex against a panel of 230 kinases representative of all known kinases classes. Included in the survey were the Flt3, its mutant, and close relatives in the Class III receptor tyrosine kinase class, together with serine-threonine kinases and atypical kinases many of which share no homology of active site with Flt3 as shown, for example, in the respective “genecard” for each kinase and available for inspection at on the web at http://www.genecards.org/.
(§6) Table 3 lists the estimated EC50 values from an abridged dose response curve for Symadex (C-1311) and CF-123. The kinases are listed alphabetically by Group and Family.

The target in assay [2] is T2, FLT3 (Homo sapiens, UniProt P36888).
T2 construct: purchased Invitrogen (SelectScreen platform)
T2 sequence (P36888 27-993): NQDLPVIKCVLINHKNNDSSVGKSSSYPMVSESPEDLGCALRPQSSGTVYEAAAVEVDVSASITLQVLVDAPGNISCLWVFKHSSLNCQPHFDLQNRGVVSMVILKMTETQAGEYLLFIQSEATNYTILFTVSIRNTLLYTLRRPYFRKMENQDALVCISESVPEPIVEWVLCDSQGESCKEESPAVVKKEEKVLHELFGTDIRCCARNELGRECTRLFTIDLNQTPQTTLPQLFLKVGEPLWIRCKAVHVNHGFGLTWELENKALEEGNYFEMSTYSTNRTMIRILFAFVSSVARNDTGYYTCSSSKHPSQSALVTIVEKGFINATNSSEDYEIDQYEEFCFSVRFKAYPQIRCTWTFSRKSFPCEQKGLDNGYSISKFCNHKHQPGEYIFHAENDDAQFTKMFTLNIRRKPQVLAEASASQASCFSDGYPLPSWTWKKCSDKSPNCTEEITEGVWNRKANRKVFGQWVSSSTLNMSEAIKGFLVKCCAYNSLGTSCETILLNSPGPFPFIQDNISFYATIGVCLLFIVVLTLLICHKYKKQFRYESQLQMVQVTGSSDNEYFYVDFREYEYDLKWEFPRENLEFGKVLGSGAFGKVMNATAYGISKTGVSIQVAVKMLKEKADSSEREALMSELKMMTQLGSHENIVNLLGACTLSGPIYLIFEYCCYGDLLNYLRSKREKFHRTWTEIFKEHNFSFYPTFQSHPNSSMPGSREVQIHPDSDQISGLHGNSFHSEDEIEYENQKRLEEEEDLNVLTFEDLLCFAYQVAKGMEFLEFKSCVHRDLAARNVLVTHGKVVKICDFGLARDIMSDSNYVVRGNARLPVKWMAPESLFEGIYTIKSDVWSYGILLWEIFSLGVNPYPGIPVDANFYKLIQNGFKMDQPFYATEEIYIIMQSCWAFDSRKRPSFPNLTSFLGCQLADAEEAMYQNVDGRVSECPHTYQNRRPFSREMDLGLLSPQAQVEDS
Here is the method:
as §1, §2, §3, §4, §5, §6

Assay [3] addresses T3, PAK2 (PAK65) (Homo sapiens, UniProt Q13177).
T3 construct: purchased Invitrogen (SelectScreen platform)
The protocol:
as §1, §2, §3, §4, §5, §6

In assay [4] the target is T4, EGFR (ErbB1) T790M (Homo sapiens, UniProt P00533, T790M).
T4 construct: purchased Invitrogen (SelectScreen service)
Here is the method:
as §1, §2, §3, §4, §5, §6

Assay [5] has as its target T5, MINK1 (ZC3) (Homo sapiens, UniProt Q8N4C8).
T5 construct: purchased Invitrogen (SelectScreen platform)
Here is the method: as §1, §2, §3, §4, §5, §6

The target of assay [6] is T6, PDGFRA D842V (Homo sapiens, UniProt P16234, D842V).
T6 construct: purchased Invitrogen (SelectScreen platform)
The protocol:
as §1, §2, §3, §4, §5, §6

Assay [7] has as its target T7, PASK (Homo sapiens, UniProt Q96RG2).
T7 construct: purchased Invitrogen, Inc. (SelectScreen platform)
The protocol: as §1, §2, §3, §4, §5, §6

In assay [8] the target is T8, CSNK1D (CK1 delta) (Homo sapiens, UniProt P48730).
T8 construct: purchased Invitrogen (SelectScreen platform)
Here is the method: as §1, §2, §3, §4, §5, §6

Assay [9] has as its target T9, RAF1 (cRAF) Y340D Y341D (Homo sapiens, UniProt P04049, Y340D/Y341D).
T9 construct: purchased Invitrogen, Inc. (SelectScreen platform)
Here is the method:
as §1, §2, §3, §4, §5, §6

Assay [10] concerns the target T10, EPHB2 (Homo sapiens, UniProt P29323).
T10 construct: purchased Invitrogen (SelectScreen service)
Here is the method: as §1, §2, §3, §4, §5, §6

The target in assay [11] is T11, PDGFRA (PDGFR alpha) (Homo sapiens, UniProt P16234).
T11 construct: purchased Invitrogen (SelectScreen platform)
Here is the method:
as §1, §2, §3, §4, §5, §6

The target of assay [12] is T12, EPHA8 (Homo sapiens, UniProt P29322).
T12 construct: purchased Invitrogen (SelectScreen service)
The protocol:
as §1, §2, §3, §4, §5, §6

For assay [13], the target named is T13, BMX (Homo sapiens, UniProt P51813).
T13 construct: purchased Invitrogen (SelectScreen)
The protocol: as §1, §2, §3, §4, §5, §6

Assay [14] addresses T14, DAPK3 (ZIPK) (Homo sapiens, UniProt O43293).
T14 construct: purchased Invitrogen, Inc. (SelectScreen platform)
Here is the method: as §1, §2, §3, §4, §5, §6

Assay [15] deals with T15, PRKACA (PKA, PKACA) (Homo sapiens, UniProt P17612).
T15 construct: purchased Invitrogen (SelectScreen platform)
The protocol:
as §1, §2, §3, §4, §5, §6

Assay [16] has as its target T16, TAOK2 (TAO1) (Homo sapiens, UniProt Q9UL54).
T16 construct: purchased Invitrogen (SelectScreen platform)
Here is the method:
as §1, §2, §3, §4, §5, §6

Molecules are shown by their SMILES. A value given as a limit tells only on which side of the number the result lay.

T1 sequence (Q12866 21-999): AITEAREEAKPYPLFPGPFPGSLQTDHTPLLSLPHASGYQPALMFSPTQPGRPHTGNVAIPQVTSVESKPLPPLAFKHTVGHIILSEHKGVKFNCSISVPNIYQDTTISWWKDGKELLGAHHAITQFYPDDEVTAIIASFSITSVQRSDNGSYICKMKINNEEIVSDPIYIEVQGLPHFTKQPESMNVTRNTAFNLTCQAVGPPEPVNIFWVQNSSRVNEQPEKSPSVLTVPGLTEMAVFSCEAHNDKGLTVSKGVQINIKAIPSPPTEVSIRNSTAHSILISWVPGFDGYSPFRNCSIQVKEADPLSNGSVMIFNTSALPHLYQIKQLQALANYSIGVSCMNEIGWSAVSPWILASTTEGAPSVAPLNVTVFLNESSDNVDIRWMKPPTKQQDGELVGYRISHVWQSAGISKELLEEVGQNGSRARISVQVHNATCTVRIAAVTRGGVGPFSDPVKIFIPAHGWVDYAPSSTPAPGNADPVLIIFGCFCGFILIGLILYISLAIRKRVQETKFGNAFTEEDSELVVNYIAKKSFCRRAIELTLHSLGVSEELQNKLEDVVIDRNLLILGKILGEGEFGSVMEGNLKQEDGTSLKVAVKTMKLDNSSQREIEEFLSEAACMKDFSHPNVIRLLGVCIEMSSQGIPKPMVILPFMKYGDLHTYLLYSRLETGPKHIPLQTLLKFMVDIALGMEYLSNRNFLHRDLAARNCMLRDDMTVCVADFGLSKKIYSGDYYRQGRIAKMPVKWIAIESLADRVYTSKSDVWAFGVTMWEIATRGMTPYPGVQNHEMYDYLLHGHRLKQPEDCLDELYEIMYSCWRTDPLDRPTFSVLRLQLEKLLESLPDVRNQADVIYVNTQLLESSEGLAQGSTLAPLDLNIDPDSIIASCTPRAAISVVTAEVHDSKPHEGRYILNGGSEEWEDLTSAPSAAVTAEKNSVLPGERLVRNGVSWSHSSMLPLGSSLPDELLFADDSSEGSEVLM
T8 sequence (P48730 whole entry): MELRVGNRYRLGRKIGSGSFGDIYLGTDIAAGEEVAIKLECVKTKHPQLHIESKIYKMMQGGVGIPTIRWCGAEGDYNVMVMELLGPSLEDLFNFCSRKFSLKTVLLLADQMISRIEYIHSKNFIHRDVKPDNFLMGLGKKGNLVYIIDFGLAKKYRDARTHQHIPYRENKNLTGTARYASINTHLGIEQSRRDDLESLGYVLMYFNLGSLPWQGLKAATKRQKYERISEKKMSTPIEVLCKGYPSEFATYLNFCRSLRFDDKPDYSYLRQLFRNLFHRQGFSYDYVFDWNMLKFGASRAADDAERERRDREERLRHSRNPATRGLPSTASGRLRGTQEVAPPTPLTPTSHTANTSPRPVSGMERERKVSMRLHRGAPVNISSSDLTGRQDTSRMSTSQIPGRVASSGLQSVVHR
T12 sequence (P29322 28-1005): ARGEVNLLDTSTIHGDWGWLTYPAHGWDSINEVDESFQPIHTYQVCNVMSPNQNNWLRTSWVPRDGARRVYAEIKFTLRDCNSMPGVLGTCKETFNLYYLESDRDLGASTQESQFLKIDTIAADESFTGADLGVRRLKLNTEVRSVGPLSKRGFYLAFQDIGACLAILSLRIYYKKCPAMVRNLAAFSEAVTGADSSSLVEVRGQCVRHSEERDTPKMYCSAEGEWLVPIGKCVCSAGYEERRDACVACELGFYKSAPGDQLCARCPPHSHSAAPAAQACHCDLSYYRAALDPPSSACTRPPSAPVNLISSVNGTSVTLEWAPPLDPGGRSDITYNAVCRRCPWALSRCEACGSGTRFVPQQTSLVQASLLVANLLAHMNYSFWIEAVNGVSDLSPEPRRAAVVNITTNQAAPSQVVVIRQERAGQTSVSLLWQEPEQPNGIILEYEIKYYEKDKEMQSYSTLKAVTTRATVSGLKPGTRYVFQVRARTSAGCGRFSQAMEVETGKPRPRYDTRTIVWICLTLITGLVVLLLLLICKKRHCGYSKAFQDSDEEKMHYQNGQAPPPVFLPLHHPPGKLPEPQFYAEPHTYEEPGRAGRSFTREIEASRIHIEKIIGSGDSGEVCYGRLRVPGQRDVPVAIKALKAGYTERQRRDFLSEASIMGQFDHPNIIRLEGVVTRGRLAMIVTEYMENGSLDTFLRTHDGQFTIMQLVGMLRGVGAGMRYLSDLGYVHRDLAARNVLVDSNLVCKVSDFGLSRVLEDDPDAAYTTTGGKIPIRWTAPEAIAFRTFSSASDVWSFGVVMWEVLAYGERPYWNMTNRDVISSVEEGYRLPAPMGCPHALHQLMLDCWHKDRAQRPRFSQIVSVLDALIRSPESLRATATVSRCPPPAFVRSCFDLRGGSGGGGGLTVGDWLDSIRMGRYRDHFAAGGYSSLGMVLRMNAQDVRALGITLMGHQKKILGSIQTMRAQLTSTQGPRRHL
T10 sequence (P29323 19-1055): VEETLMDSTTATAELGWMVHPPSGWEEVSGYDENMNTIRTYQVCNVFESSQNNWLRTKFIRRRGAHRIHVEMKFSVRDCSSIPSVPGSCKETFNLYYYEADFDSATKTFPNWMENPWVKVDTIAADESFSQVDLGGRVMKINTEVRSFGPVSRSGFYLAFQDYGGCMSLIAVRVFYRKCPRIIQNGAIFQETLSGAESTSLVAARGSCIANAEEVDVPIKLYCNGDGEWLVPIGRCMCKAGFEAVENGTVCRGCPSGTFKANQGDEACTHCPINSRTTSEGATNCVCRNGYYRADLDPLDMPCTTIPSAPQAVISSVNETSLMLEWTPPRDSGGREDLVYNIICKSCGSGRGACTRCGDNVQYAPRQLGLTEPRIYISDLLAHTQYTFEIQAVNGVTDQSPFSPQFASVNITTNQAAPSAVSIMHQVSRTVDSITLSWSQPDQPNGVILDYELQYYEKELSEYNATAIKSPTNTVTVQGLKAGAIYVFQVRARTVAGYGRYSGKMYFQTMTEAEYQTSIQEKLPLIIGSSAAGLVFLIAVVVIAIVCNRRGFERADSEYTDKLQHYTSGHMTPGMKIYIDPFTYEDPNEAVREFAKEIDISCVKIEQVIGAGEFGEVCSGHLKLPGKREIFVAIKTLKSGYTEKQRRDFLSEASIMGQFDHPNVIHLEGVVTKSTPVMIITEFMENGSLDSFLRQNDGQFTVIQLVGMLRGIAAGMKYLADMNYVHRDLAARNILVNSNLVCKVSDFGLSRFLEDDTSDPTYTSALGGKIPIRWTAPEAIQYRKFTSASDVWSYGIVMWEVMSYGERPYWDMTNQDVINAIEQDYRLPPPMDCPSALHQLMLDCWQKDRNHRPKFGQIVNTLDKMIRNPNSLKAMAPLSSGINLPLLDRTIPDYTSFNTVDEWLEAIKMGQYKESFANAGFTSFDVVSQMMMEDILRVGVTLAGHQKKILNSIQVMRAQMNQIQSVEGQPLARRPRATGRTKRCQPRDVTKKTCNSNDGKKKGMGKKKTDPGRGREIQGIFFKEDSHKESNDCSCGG
T14 sequence (O43293 whole entry): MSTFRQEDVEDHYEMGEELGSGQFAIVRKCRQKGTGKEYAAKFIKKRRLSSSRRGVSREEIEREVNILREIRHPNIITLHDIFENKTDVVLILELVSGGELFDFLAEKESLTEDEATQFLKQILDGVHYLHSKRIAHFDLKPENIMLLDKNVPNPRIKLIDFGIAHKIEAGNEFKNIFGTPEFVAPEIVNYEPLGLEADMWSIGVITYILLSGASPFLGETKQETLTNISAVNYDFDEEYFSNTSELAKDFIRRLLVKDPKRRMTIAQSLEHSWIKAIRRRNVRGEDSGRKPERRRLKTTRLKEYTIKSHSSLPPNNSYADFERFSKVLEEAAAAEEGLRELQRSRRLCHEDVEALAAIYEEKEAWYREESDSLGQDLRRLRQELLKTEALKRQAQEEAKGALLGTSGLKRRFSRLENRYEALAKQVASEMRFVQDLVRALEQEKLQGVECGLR
T16 sequence (Q9UL54 whole entry): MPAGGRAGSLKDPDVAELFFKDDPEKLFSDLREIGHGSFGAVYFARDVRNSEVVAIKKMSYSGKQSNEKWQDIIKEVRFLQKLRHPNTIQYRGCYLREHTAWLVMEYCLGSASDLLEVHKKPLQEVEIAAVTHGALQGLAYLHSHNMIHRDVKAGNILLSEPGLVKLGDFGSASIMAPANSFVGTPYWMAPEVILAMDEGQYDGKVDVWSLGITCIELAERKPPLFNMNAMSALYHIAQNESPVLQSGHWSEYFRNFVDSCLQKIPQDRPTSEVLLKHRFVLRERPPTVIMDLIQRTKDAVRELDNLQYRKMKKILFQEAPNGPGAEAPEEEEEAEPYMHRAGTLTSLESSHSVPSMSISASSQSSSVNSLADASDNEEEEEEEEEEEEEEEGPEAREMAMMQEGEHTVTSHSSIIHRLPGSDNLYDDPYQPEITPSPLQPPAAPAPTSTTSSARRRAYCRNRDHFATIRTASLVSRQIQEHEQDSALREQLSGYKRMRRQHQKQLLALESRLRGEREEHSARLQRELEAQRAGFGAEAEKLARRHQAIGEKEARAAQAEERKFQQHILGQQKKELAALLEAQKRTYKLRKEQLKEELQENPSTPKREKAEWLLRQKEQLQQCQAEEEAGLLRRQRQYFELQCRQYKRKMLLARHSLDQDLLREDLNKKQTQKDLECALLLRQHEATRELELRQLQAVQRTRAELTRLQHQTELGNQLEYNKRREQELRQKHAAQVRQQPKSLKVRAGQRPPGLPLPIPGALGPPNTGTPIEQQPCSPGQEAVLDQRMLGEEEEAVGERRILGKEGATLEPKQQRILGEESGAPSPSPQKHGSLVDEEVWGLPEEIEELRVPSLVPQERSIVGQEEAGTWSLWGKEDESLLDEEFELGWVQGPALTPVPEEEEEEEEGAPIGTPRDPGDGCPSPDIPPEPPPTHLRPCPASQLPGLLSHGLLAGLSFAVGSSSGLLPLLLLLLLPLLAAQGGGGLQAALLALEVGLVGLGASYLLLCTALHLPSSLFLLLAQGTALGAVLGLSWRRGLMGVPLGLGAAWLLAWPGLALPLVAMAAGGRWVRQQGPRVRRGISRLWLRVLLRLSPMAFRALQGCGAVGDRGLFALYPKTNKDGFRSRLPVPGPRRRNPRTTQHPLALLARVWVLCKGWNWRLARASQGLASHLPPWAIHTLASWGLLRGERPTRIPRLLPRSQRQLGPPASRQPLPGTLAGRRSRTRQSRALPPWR

In the case of `CN(C)CCCNc1ccc2ncn3c4ccc5[nH]ncc5c4c(=O)c1c23` [Compound (IV)], the EC50 (commonly the concentration that produces a half-maximal response) in [1] is more than 5 µM; in assay [2], 0.008 µM; in assay [3] it was more than 5 µM; in assay [4], 4.01 µM; in [5] it was 1.36 µM; in [6], 0.37 µM. Also, the EC50 is 1.23 µM in assay [7]; 4.8 µM in assay [8]; more than 5 µM in assay [9]; more than 5 µM in assay [10]; 0.562 µM in assay [11]; 4.15 µM in [12]. The concentration giving a half-maximal response (EC50) in assay [13] was 3.23 µM; in [14], 0.973 µM; in [15], more than 5 µM; in assay [16], more than 5 µM.
Regarding `CCN(CC)CCNc1ccc2ncn3c4ccc(O)cc4c(=O)c1c23` [Symadex, 5-(2-(diethylamino)ethylamino)-8-hydroxy-6H-imidazo[4,5,1-de]acridin-6-one, reference compound], the EC50 in [1] was 3.6 µM; in assay [2] it was 0.015 µM; in [3], more than 5 µM; in assay [4] it was 2.9 µM; in assay [5], 1.09 µM; in assay [6] it was 1.06 µM. The EC50 was 4.32 µM in [7]; 0.673 µM in [8]; more than 5 µM in [9]; more than 5 µM in assay [10]; 1.23 µM in [11]; 3.35 µM in assay [12]. Besides, the EC50 in assay [13], in assay [14], in [15] and in assay [16] was more than 5 µM throughout.

The record behind these values is patent US20100292231A1, “Indazole Compounds for Treating Inflammatory Disorders, Demyelinating Disorders and Cancers” (priority 2007, published 2010).
